Results on four molecules are retold here after US20230152304A1 (SHENZHEN MINDRAY BIO-MEDICAL ELECTRONICS CO., LTD., priority 2020, published 2023).

Series [1] can be described thus: pKa of the amino group of the compound. Particulars: pKa. From the text:
For the compound having a plurality of amino groups/imino groups, the pKa of amino group described herein refers to the first dissociation constant, that is, pKa of amino group or imino group which firstly dissociates hydrogen ion.

Series [2] relates to platelet aggregation induced by COL. Nature of the series: Disaggregation over time of COL-induced platelet aggregation. The class given is cell-based. Particulars: FIG. 10; 10 mmol/L, pH 9.5, COL 0.05-20 mM, except lowest concentration. As to the method: (§1) Specifically, according to the method similar to Example 1, the amino group-containing compound (1-acetylguanidine) was added to a diluent to treat blood samples in which different concentrations of aggregation inducer were added. Then the samples were tested, in which the test was performed every 5 min after the treatment solution was added to each sample so as to obtain the change of disaggregation rates over time.
FIG. 9 and FIG. 10 show curve graphs of platelet aggregation tests induced by COL at different concentrations. The substantially same method as the above-mentioned was used, except that ADP was replaced by COL. The concentrations of COL were 0.05 mM, 0.1 mM, 0.5 mM, 1 mM, 5 mM, 10 mM and 20 mM, respectively.

Series [3] concerns platelet aggregation induced by THR. Nature of the series: Disaggregation over time of THR-induced platelet aggregation. The class given is cell-based. To be noted: FIG. 8; 10 mmol/L, pH 9.5, THR 0.1-0.35 U. The method, then:
as §1
Similarly, FIG. 7 and FIG. 8 show curve graphs of platelet aggregation tests induced by THR at different concentrations. The substantially same method as the above-mentioned was used, except that ADP was replaced by THR. The concentrations of THR were 0.1 U, 0.15 U, 0.2 U, 0.23 U, 0.25 U, 0.28 U, 0.30 U and 0.35 U, respectively. […] This was because after a certain concentration of THR was added, soluble fibrinogen converted to […], causing blood coagulation, and platelets were also wrapped by […], resulting in a sharp increase in aggregation rate. […] However, a good disaggregation rate can be achieved when samples were tested immediately after treatment.

Series [4] has as its system aggregated platelets induced by ADP. Nature of the series: Platelet disaggregation rate of blood samples with ADP-induced platelet aggregation (hematology analyzer, PLT_O).
Description: The compounds in Table 1 above were respectively added to a diluent used for a hematology analyzer to prepare blood sample diluents. […] Each of the compounds in Table 1 (at a final concentration 0.01 mol/L) was added to the diluent separately, pH was adjusted to 14, and the osmotic pressure was adjusted to 200 mOsm/L to obtain the treatment solution.
The venous blood of a healthy subject was collected into blood anticoagulant tubes for later use. Two aliquot blood samples (1 ml/sample) were taken. The above-mentioned diluent was added to one of the samples, the resulting solution was mixed evenly, and then the platelet count was detected in a hematology analyzer (Mindray BC-6000Plus) and recorded as: PLT_O (unaggregated). The platelet aggregation inducer ADP (at a final concentration of 0.01 mmol/L) was added to the other sample, and the resulting solution was mixed evenly. Platelets were aggregated 5 min later, at this time the above-mentioned diluent was added, and then the blood containing the aggregated platelets was detected by the hematology analyzer to obtain the platelet count, which was recorded as: PLT_O (aggregated). Another 1 ml of blood sample was taken, the platelet aggregation inducer ADP (at a final concentration of 0.01 mmol/L) was added, and the resulting solution was mixed evenly. The above-mentioned treatment solution was added 5 min later, the resulting solution was mixed evenly, and then the platelet count of the treated blood was detected by the hematology analyzer and was recorded as: PLT_O (disaggregated).
The subject of series [5] is platelet aggregation induced by RIS. In words: Disaggregation over time of RIS-induced platelet aggregation. The class given is cell-based. Particulars: FIG. 12; 10 mmol/L, pH 9.5, RIS 0.15-3 mM. As to the method:
as §1
FIG. 11 and FIG. 12 show curve graphs of platelet aggregation tests induced by RIS at different concentrations. The substantially same method as the above-mentioned was used, except that ADP was replaced by RIS. The concentrations of RIS were 0.15 mM, 0.375 mM, 0.75 mM, 1.5 mM and 3 mM, respectively. […] In addition, the disaggregation effect of 1-acetylguanidine can reach the highest immediately for RIS at various concentrations, and remained relatively stable within 10 min. The rapid decrease in the disaggregation rate after 15 min was also because the blood in the samples was coagulated.

The test system of the next series is platelets. Nature of the series: Induction of platelet aggregation in venous blood by inducers (aggregation rate, impedance channel PLT_I). The class given is cell-based. Particulars: for time until platelet aggregation reached the maximum degree: after inducer was added, different concentrations. The text has this: Platelet aggregation can be induced by a variety of substances, thereby leading to blood coagulation. In order to investigate the disaggregation effects of amino group-containing compounds on platelet aggregation induced by different factors, in this example, substances, which can induce platelet aggregation, in the blood coagulation test scheme were selected according to the existing platelet aggregation pathways, and a variety of platelet aggregation models were established. The substances included adenosine diphosphate (ADP), thrombin (THR), collagen (COL) and ristocetin (RIS). […] In addition, the amino group-containing compounds can also effectively disaggregate the platelets having different inducements and aggregation degrees in certain concentration ranges and time ranges.
Specifically, several samples of 1 ml of venous blood were taken, and ADP was added to each sample to make the final concentrations be 0.01 mM, 0.25 mM, 0.5 mM and 1 mM respectively. The blood containing aggregated platelets was tested by using a hematology analyzer. The features including numbers, sizes, etc., of various cell particles in the blood were obtained by means of an impedance channel and an optical channel in the hematology analyzer. Normal blood was collected into blood anticoagulant tubes, and then the number of platelet particles detected by the impedance channel in the hematology analyzer was obtained and recorded as (PLT_I). When platelet aggregation occurred, the volume of a particle of the aggregated platelets was much larger than the volume of a single platelet and therefore the accurate count cannot be achieved by means of a corresponding platelet recognition mechanism. As a result, the platelet count was lowered and recorded as PLT_I (aggregated). No amino group-containing compound was added to the diluent of the impedance channel, thus the impedance channel reflected the degree of platelet aggregation in this aggregation model. The platelet count before aggregation was recorded as PLT_I (unaggregated), the platelet count after aggregation was recorded as PLT_I (aggregated), and the aggregation rate=PLT_I (aggregated)/PLT_I (unaggregated). The number of platelet particles tested by means of the optical channel in the hematology analyzer was obtained and recorded as (PLT_O). […] The platelet count before aggregation was recorded as PLT_O (unaggregated), and the platelet count after aggregation was recorded as PLT_O (undisaggregated). […] On the basis of the above principle, the model was established, and the disaggregation effect of the amino group-containing compound was quantitatively determined.

For the molecule `CC(=O)NC(=N)N` [1-acetylguanidine], the pKa in series [1] (Example 4) stood at 8.33; in series [1] (Table 4) it was 8.33; in series [1] (Table 5), 8.3. In addition, the “time after which the disaggregation effect decreased significantly” value in series [2] was 4 to 8 min; in series [3] it was 1 min. For the same molecule, the disaggregation rate turned out to be 97.32% in series [4] (FIG. 3, ambient pH varied 7.0-10, after pH increase); 35.23% in series [4] (FIG. 3, ambient pH varied 7.0-10, low end of pH range); 97.11% in series [4] (Table 5, pH 9.5, method of Example 1). Also, the “disaggregation effect on platelet aggregation with various aggregation degrees” value in series [4] (FIG. 6, 10 mmol/L, pH 9.5, ADP 0.01-1 mM) is given as “remarkable disaggregation effects”. Also, the disaggregation effect in series [4] (FIG. 14, 50 mmol/L (total for combination, equal parts), ADP 0.1 mmol/L) came out at 62.14%. Also, in series [4] (Table 4, pH 10.8, method of Example 1), the Platelet disaggregation rate amounted to 97.35%. In addition, the “time after which the disaggregation rate decreased rapidly” value in series [5] is 15 min.
In the case of `Nc1ncnc2c1ncn2[C@@H]1O[C@H](COP(=O)(O)OP(=O)(O)O)[C@@H](O)[C@H]1O` [ADP, adenosine diphosphate], the “platelet aggregation achieved at most” value in the series with platelets (FIG. 5, ADP 0.01 mM) is reported as “about 35%”. Further, the “time until platelet aggregation reached the maximum degree” value with platelets is listed as at most 5 min.
For collagen, in the series with platelets (FIG. 9, COL at various concentrations (0.05-20 mM)), the “degree of platelet aggregation” value is recorded as about 100%.
As for ristocetin, the “time until platelet aggregation reached the maximum degree” value in the series with platelets lay within 15 to 20 min.

By pKa is commonly meant the negative logarithm of the acid dissociation constant. Higher therefore signals a weaker acid or stronger base.
